{"source": "patent US20240336573A1", "about": "“COMPOUND FOR THE TREATMENT AND PROPHYLAXIS OF INFECTIOUS DISEASES” (Eberhard Karls Universität Tübingen Medizinische Fakultät, priority 2021, published 2024)", "key": {"[1]": {"system": "E. coli", "assay": "Vancomycin MIC in presence of compound (strain not stated)", "format": "cell-based", "details": "in presence of 100 μM compound", "experimental": "To test for the sensitizer properties of the compounds, the inventors then performed a sensitizer MIC assay. To this end, E. coli BW25113, E. coli JW2496-3, and E. coli ATCC 25922 inocula were prepared as described above. Each well of a 96-well plate was prefilled with a fixed compound concentration of 100 μM and a dilution series of Vancomycin ranging from […]. A sensitizing effect was defined as reduction of the MIC value of Vancomycin of the respective test strain."}, "[2]": {"target": "SurA (Escherichia coli, UniProt P0ABZ6)", "sequence (P0ABZ6 21-428)": "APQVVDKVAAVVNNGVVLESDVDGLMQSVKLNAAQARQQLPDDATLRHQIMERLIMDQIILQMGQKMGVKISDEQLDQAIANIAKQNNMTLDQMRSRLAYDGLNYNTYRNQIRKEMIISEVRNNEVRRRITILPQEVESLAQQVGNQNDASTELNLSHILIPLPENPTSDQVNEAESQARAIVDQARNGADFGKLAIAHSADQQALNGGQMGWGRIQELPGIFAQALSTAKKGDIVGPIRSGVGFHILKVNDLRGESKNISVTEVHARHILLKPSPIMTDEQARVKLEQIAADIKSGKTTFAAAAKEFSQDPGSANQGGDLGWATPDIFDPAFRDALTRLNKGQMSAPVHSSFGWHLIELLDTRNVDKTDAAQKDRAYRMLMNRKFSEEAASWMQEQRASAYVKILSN", "assay": "Luciferase-based SurA activity assay at the ELF (primary screen P1, dose response C2)", "format": "biochemical, E. coli", "source_text": "The biological function of SurA is to bind and to keep outer membrane proteins that have reached the periplasm in an unfolded but folding-competent state. The inventors' assay is based on this interaction and uses firefly Luciferase (fLuc) as a non-native substrate. […] This is exploited in the assay (FIG. 3). The loss of tertiary structure of fLuc leads to the exposure of binding sites for SurA. It is known that SurA binds selectively to a special group of substrates. These substrates have in common the specific patterns of hydrophobic amino acids that are highly enriched in the beta strands of integral outer membrane proteins. These motifs are present in OMPs of all Gram-negative bacteria and in fLuc as well. Upon mild heat treatment of fLuc and its subsequent partial unfolding, fLuc is accepted as a substrate by SurA. Of note, these intermediates served as reporter substrates to determine the activity of a […] folding chaperone. […] This interaction remains stable upon temperature reduction. Next, the temperature of the assay is reduced to room temperature and luciferase activity is subsequently measured by addition of Luciferin and ATP. In conditions without SurA, fLuc will refold into its active conformation resulting in a luminescence signal.\nOf note, the SurA activity assay was performed similar at the ELF but with optimizations in regard of the higher throughput including the change of the plate format to 1536-wells. The SurA activity assay performed at the ELF contained the following steps (adapted from the QHL report provided by the ELF). First, SurA was thawed at RT and heat activated in a water bath. Next, the vial was taken out of the water bath and cooled down to RT for 30 min @ bench. Afterwards, the SurA concentration was adjusted in assay buffer to 2 μM. Noteworthy, the SurA solution was kept on ice. […] Finally, 2 μL substrate mix (180 μM Luciferin with 12 mM ATP) were added simultaneously to all wells using the Fluorometric Imaging Plate Reader (FLIPR) and the luminescence signal was measured immediately afterwards on the FLIPR (Gain 70,000). […]"}, "[3]": {"assay": "Solubility estimate based on turbidity (OD600 nm)", "format": "physicochemical", "source_text": "The evaluation of these shelf derivatives included an estimate of their solubility based on the turbidity (OD600 nm) as well as their activity in the primary assay (2.1), their KD (2.2), their MIC reduction of Vancomycin (2.5) and their cytotoxicity (2.6) (Table 4)."}, "[4]": {"system": "E. coli BW25113, E. coli JW2496-3, E. coli ATCC 25922", "assay": "Minimal inhibitory concentration assay (bactericidal/bacteriostatic assessment)", "format": "cell-based", "details": "dilution series 100-1.7 μM", "source_text": "The intended effect of a SurA inhibitor should be the induction of a disturbance of the outer membrane composition resulting in an increased susceptibility to antibiotic treatment. Of note, Vancomycin is typically not used to treat infections with Gram-negative bacteria, because it is excluded by the OM and not efficient at concentrations that could be achieved in patients. However, at appropriate dosing in vitro it can be used to detect outer membrane defects. For determining a potential sensitizing effect of Vancomycin treatment, the inventors first tested whether the compounds at hand were bactericidal per se. Therefore, the inventors performed a minimal inhibitory concentration (MIC) assay. To this end, 5 ml overnight cultures of E. coli BW25113 (Keio-Collection reference strain), E. coli JW2496-3 (Keio-Collection single gene knockout for bamB, which suffers from decreased outer membrane integrity) and E. coli ATCC 25922 (a reference strain recommended for antibiotic susceptibility testing) were grown in Mueller Hinton Broth, Cation adjusted (MHB-II). The next day, the OD was adjusted to obtain 1*10^8 CFU/ml using fresh MHB-II. Next, this bacterial solution was diluted 1:100 into 20 ml fresh MHB-II. 50 μl of this bacteria solution were then transferred into each well of a 96-well plate prefilled with 50 μl MHB-II supplemented with the desired compounds. The test plates for the bactericidal assessment contained dilution series of the compounds from 100-1.7 μM. Plates were sealed with a gas permeable membrane and incubated o/n at 37° C. in a humid chamber without shaking. After o/n incubation, bacterial growth was quantified by measuring the optical density at 600 nm wavelength in a multiplate reader. Compounds showing no growth inhibition at 100 μM were considered non-bactericidal. Of note, the bactericidal effect of Vancomycin was assessed similarly for each test strain using Vancomycin concentrations ranging from […]. This was done to identify a Vancomycin concentration at which the strains just managed to survive."}}}
{"smiles": "CN(C)c1ccc(-c2nc3cc(NC(=O)Cn4cc5ccccc5n4)ccc3[nH]2)cc1", "note": "[QHL-24]", "values": [{"measurement": "MIC (Vanco, mg/ml)", "setting": "[1]", "value": 0.256, "unit": "mg/mL"}, {"measurement": "DRC (C2) pIC50", "setting": "[2]; 7 concentration steps 20 μM to 27.4 nM, n=2", "value": 5.45}, {"measurement": "Primary assay (P1) % Effect", "setting": "[2]; ELF library screen, 1536-well", "value": 151, "unit": "%"}, {"measurement": "Primary assay (P1) Z-score", "setting": "[2]; ELF library screen, 1536-well", "value": 191.97}, {"measurement": "Solubility (in words)", "setting": "[3]", "value": "poor solubility"}]}
{"smiles": "NC(=O)c1nc(Cc2ccc(OCC(=O)O)cc2)[nH]c1NC(=O)c1ccc(-c2ccccc2)cc1", "note": "[Compound 2a, 2-(4-((5-([1,1′-biphenyl]-4-carboxamido)-4-carbamoyl-1H-imidazol-2-yl)methyl)phenoxy)acetic acid]", "values": [{"measurement": "Bacteriostatic MIC Assay Result", "setting": "[4]", "value": "non-bacteriostatic"}]}
